Data from the NIST ThermoML archive (doi:10.1021/je7007022).
Numbers after ± are expanded uncertainties.

Test: excess molar enthalpy (molar enthalpy of mixing); xn = mol fraction of the nth substance listed
Conditions: 303.15 K, 101 kPa, Liquid, Flow calorimetry

O=CO [formic acid] + C1COCCO1
Conditions	excess molar enthalpy [kcal/mol]
x2 = 0.056	-0.0504 ± 0.00215
x2 = 0.114	-0.096 ± 0.00406
x2 = 0.225	-0.194 ± 0.00789
x2 = 0.301	-0.275 ± 0.0112
x2 = 0.383	-0.35 ± 0.0143
x2 = 0.472	-0.401 ± 0.0163
x2 = 0.58	-0.418 ± 0.017
x2 = 0.705	-0.354 ± 0.0143
x2 = 0.762	-0.274 ± 0.0112
x2 = 0.836	-0.182 ± 0.00741
x2 = 0.917	-0.0574 ± 0.00239
